Reference: the NIST ThermoML archive (doi:10.1016/j.fluid.2016.11.012)
Values joined by “and” are separate entries in the source; they are usually repeats but may differ in a detail not shown here. Identical values can stand only once. ± gives the expanded uncertainty stated by the source.

Assays:
[1] = Crystal; for vapor or sublimation pressure: Closed cell (Static) method
[2] = molar heat capacity at constant pressure; settings: 100 kPa, DSC
[3] = Molar enthalpy of transition or fusion; settings: Crystal; DSC

Structure (SMILES): C1=Cc2cccc3cccc1c23 [acenaphthylene]
- vapor or sublimation pressure ([1]; 296.95 K): 0.00087 ± 0.00011 kPa
- vapor or sublimation pressure ([1]; 296.97 K): 0.00086 ± 0.00011 kPa
- vapor or sublimation pressure ([1]; 296.98 K): 0.00088 ± 0.00011 kPa
- vapor or sublimation pressure ([1]; 302.22 K): 0.00147 ± 0.00012 kPa
- vapor or sublimation pressure ([1]; 302.23 K): 0.00148 ± 0.00012 kPa and 0.00147 ± 0.00012 kPa
- vapor or sublimation pressure ([1]; 307.47 K): 0.00244 ± 0.00014 kPa
- vapor or sublimation pressure ([1]; 307.48 K): 0.00247 ± 0.00014 kPa
- vapor or sublimation pressure ([1]; 307.49 K): 0.00243 ± 0.00014 kPa
- vapor or sublimation pressure ([1]; 312.71 K): 0.00399 ± 0.00019 kPa
- vapor or sublimation pressure ([1]; 312.72 K): 0.00399 ± 0.00019 kPa and 0.00397 ± 0.00019 kPa
- vapor or sublimation pressure ([1]; 317.89 K): 0.00629 ± 0.00027 kPa and 0.00628 ± 0.00027 kPa and 0.00632 ± 0.00027 kPa
- vapor or sublimation pressure ([1]; 323.06 K): 0.00986 ± 0.0004 kPa
- vapor or sublimation pressure ([1]; 323.07 K): 0.00984 ± 0.0004 kPa and 0.00986 ± 0.0004 kPa
- vapor or sublimation pressure ([1]; 328.2 K): 0.01511 ± 0.00055 kPa
- vapor or sublimation pressure ([1]; 328.21 K): 0.01516 ± 0.00055 kPa
- vapor or sublimation pressure ([1]; 328.22 K): 0.01513 ± 0.00055 kPa
- vapor or sublimation pressure ([1]; 333.33 K): 0.02281 ± 0.00067 kPa
- vapor or sublimation pressure ([1]; 333.34 K): 0.02286 ± 0.00067 kPa and 0.02282 ± 0.00067 kPa
- vapor or sublimation pressure ([1]; 338.45 K): 0.03393 ± 0.00084 kPa and 0.03392 ± 0.00084 kPa
- vapor or sublimation pressure ([1]; 343.49 K): 0.04954 ± 0.0011 kPa
- vapor or sublimation pressure ([1]; 343.5 K): 0.04955 ± 0.0011 kPa and 0.0496 ± 0.0011 kPa
- vapor or sublimation pressure ([1]; 348.54 K): 0.07154 ± 0.0014 kPa and 0.07156 ± 0.0014 kPa
- vapor or sublimation pressure ([1]; 353.54 K): 0.1018 ± 0.0019 kPa
- vapor or sublimation pressure ([1]; 353.55 K): 0.1017 ± 0.0019 kPa and 0.1018 ± 0.0019 kPa
- vapor or sublimation pressure ([1]; 358.56 K): 0.1434 ± 0.0021 kPa and 0.1435 ± 0.0021 kPa
- vapor or sublimation pressure ([1]; 361.06 K): 0.1694 ± 0.0023 kPa
- vapor or sublimation pressure ([1]; 361.07 K): 0.1693 ± 0.0023 kPa and 0.1695 ± 0.0023 kPa
- vapor or sublimation pressure ([1]; 363.54 K): 0.1995 ± 0.0026 kPa
- vapor or sublimation pressure ([1]; 363.55 K): 0.1996 ± 0.0026 kPa and 0.1994 ± 0.0026 kPa
- Normal melting temperature ([1]; DTA): 92.00 ± 0.7 °C
- molar heat capacity at constant pressure ([2]; 304.12 K, Crystal): 185.5 ± 8.6 J/K/mol and 185.08 ± 8.6 J/K/mol and 185.83 ± 8.6 J/K/mol
- molar heat capacity at constant pressure ([2]; 306.11 K, Crystal): 186.74 ± 8.6 J/K/mol and 186.41 ± 8.6 J/K/mol and 186.24 ± 8.6 J/K/mol
- molar heat capacity at constant pressure ([2]; 308.11 K, Crystal): 188.24 ± 8.7 J/K/mol and 187.99 ± 8.7 J/K/mol and 188.07 ± 8.7 J/K/mol
- molar heat capacity at constant pressure ([2]; 310.11 K, Crystal): 188.57 ± 8.7 J/K/mol and 188.99 ± 8.7 J/K/mol and 188.74 ± 8.7 J/K/mol
- molar heat capacity at constant pressure ([2]; 312.11 K, Crystal): 189.4 ± 8.8 J/K/mol and 189.49 ± 8.8 J/K/mol
- molar heat capacity at constant pressure ([2]; 314.11 K, Crystal): 190.82 ± 8.8 J/K/mol and 190.32 ± 8.8 J/K/mol
- molar heat capacity at constant pressure ([2]; 316.11 K, Crystal): 191.23 ± 8.9 J/K/mol and 191.73 ± 8.9 J/K/mol and 192.23 ± 8.9 J/K/mol
- molar heat capacity at constant pressure ([2]; 318.11 K, Crystal): 192.31 ± 8.9 J/K/mol and 192.65 ± 8.9 J/K/mol and 192.15 ± 8.9 J/K/mol
- molar heat capacity at constant pressure ([2]; 320.11 K, Crystal): 193.81 ± 9 J/K/mol and 193.73 ± 9 J/K/mol and 193.56 ± 9 J/K/mol
- molar heat capacity at constant pressure ([2]; 322.11 K, Crystal): 195.06 ± 9.1 J/K/mol and 195.47 ± 9.1 J/K/mol
- molar heat capacity at constant pressure ([2]; 324.11 K, Crystal): 196.55 ± 9.1 J/K/mol and 196.06 ± 9.1 J/K/mol and 196.14 ± 9.1 J/K/mol
- molar heat capacity at constant pressure ([2]; 326.11 K, Crystal): 196.97 ± 9.1 J/K/mol and 197.8 ± 9.1 J/K/mol and 196.8 ± 9.1 J/K/mol
- molar heat capacity at constant pressure ([2]; 328.12 K, Crystal): 198.13 ± 9.2 J/K/mol and 198.22 ± 9.2 J/K/mol and 198.55 ± 9.2 J/K/mol
- molar heat capacity at constant pressure ([2]; 330.12 K, Crystal): 200.13 ± 9.3 J/K/mol and 198.88 ± 9.2 J/K/mol and 199.8 ± 9.2 J/K/mol
- molar heat capacity at constant pressure ([2]; 332.13 K, Crystal): 201.21 ± 9.3 J/K/mol and 200.88 ± 9.3 J/K/mol and 201.38 ± 9.3 J/K/mol
- molar heat capacity at constant pressure ([2]; 369.13 K, Liquid): 247.86 ± 11 J/K/mol and 248.77 ± 12 J/K/mol and 247.19 ± 11 J/K/mol
- molar heat capacity at constant pressure ([2]; 371.13 K, Liquid): 249.1 ± 12 J/K/mol and 248.1 ± 11 J/K/mol
- molar heat capacity at constant pressure ([2]; 373.13 K, Liquid): 251.1 ± 12 J/K/mol and 250.68 ± 12 J/K/mol and 249.52 ± 12 J/K/mol
- molar heat capacity at constant pressure ([2]; 375.13 K, Liquid): 250.68 ± 12 J/K/mol and 249.02 ± 12 J/K/mol and 253.51 ± 12 J/K/mol
- molar heat capacity at constant pressure ([2]; 377.13 K, Liquid): 254.17 ± 12 J/K/mol and 251.51 ± 12 J/K/mol and 250.68 ± 12 J/K/mol
- molar heat capacity at constant pressure ([2]; 379.13 K, Liquid): 253.59 ± 12 J/K/mol and 250.93 ± 12 J/K/mol and 251.35 ± 12 J/K/mol
- molar heat capacity at constant pressure ([2]; 381.13 K, Liquid): 253.92 ± 12 J/K/mol and 251.01 ± 12 J/K/mol and 252.18 ± 12 J/K/mol
- molar heat capacity at constant pressure ([2]; 383.13 K, Liquid): 254.76 ± 12 J/K/mol and 252.59 ± 12 J/K/mol and 252.51 ± 12 J/K/mol
- molar heat capacity at constant pressure ([2]; 385.13 K, Liquid): 255.92 ± 12 J/K/mol and 253.59 ± 12 J/K/mol and 253.01 ± 12 J/K/mol
- molar heat capacity at constant pressure ([2]; 387.13 K, Liquid): 255.01 ± 12 J/K/mol and 253.51 ± 12 J/K/mol and 252.93 ± 12 J/K/mol
- Molar enthalpy of transition or fusion [3]: 2.8 ± 0.158 kcal/mol

Structure (SMILES): c1ccc2c(c1)Cc1ccccc1-2 [fluorene]
- molar heat capacity at constant pressure ([2]; 262.36 K, Crystal): 171.44 ± 6.7 J/K/mol
- molar heat capacity at constant pressure ([2]; 262.44 K, Crystal): 171.61 ± 6.7 J/K/mol
- molar heat capacity at constant pressure ([2]; 262.47 K, Crystal): 171.61 ± 6.7 J/K/mol
- molar heat capacity at constant pressure ([2]; 265 K, Crystal): 173.52 ± 6.7 J/K/mol and 173.36 ± 6.7 J/K/mol
- molar heat capacity at constant pressure ([2]; 270 K, Crystal): 176.77 ± 6.8 J/K/mol and 176.68 ± 6.8 J/K/mol
- molar heat capacity at constant pressure ([2]; 275 K, Crystal): 180.01 ± 7 J/K/mol and 179.93 ± 7 J/K/mol and 180.09 ± 7 J/K/mol
- molar heat capacity at constant pressure ([2]; 280 K, Crystal): 183.33 ± 7.1 J/K/mol and 183.25 ± 7.1 J/K/mol
- molar heat capacity at constant pressure ([2]; 285 K, Crystal): 186.49 ± 7.2 J/K/mol and 186.41 ± 7.2 J/K/mol and 186.33 ± 7.2 J/K/mol
- molar heat capacity at constant pressure ([2]; 290 K, Crystal): 189.65 ± 7.3 J/K/mol and 189.49 ± 7.3 J/K/mol and 189.4 ± 7.3 J/K/mol
- molar heat capacity at constant pressure ([2]; 295 K, Crystal): 192.9 ± 7.5 J/K/mol and 192.81 ± 7.5 J/K/mol and 192.73 ± 7.5 J/K/mol
- molar heat capacity at constant pressure ([2]; 300 K, Crystal): 196.47 ± 7.6 J/K/mol and 196.31 ± 7.6 J/K/mol
- molar heat capacity at constant pressure ([2]; 305 K, Crystal): 201.38 ± 7.8 J/K/mol and 201.21 ± 7.8 J/K/mol
- molar heat capacity at constant pressure ([2]; 310 K, Crystal): 208.11 ± 8.1 J/K/mol and 208.2 ± 8.1 J/K/mol and 207.95 ± 8.1 J/K/mol
- molar heat capacity at constant pressure ([2]; 315 K, Crystal): 216.18 ± 8.4 J/K/mol and 216.34 ± 8.4 J/K/mol and 216.09 ± 8.4 J/K/mol
- molar heat capacity at constant pressure ([2]; 320 K, Crystal): 223.33 ± 8.6 J/K/mol and 223.66 ± 8.6 J/K/mol and 223.41 ± 8.6 J/K/mol
- molar heat capacity at constant pressure ([2]; 325 K, Crystal): 227.9 ± 8.8 J/K/mol and 228.32 ± 8.8 J/K/mol
- molar heat capacity at constant pressure ([2]; 330 K, Crystal): 231.81 ± 9 J/K/mol and 232.39 ± 9 J/K/mol and 232.31 ± 9 J/K/mol
- molar heat capacity at constant pressure ([2]; 335 K, Crystal): 236.96 ± 9.1 J/K/mol and 237.3 ± 9.2 J/K/mol and 237.21 ± 9.2 J/K/mol
- molar heat capacity at constant pressure ([2]; 340 K, Crystal): 242.04 ± 9.4 J/K/mol and 241.87 ± 9.4 J/K/mol
- molar heat capacity at constant pressure ([2]; 345 K, Crystal): 246.77 ± 9.6 J/K/mol and 246.61 ± 9.6 J/K/mol
- molar heat capacity at constant pressure ([2]; 350 K, Crystal): 251.85 ± 9.7 J/K/mol and 251.76 ± 9.7 J/K/mol and 251.68 ± 9.7 J/K/mol
- molar heat capacity at constant pressure ([2]; 355 K, Crystal): 257.25 ± 10 J/K/mol and 257.17 ± 10 J/K/mol and 257.08 ± 10 J/K/mol
- molar heat capacity at constant pressure ([2]; 358.37 K, Crystal): 261.08 ± 10 J/K/mol
- molar heat capacity at constant pressure ([2]; 358.5 K, Crystal): 261.32 ± 10 J/K/mol and 261.24 ± 10 J/K/mol
